US20260015350A1, “AZAQUINAZOLINE PAN-KRAS INHIBITORS” (Mirati Therapeutics, Inc., priority 2022, published 2026)

How the values were obtained:
KRas^WT = target: T1, KRas^WT (Homo sapiens, UniProt P01116); test: KRas binding assay (TR-FRET tracer displacement), KRas WT; conditions: single point, 10 nM compound, TR-FRET
T1 construct: Biotinylated KRas (corresponding to amino acids 1-169, produced at Accelegan Inc.); biotin (biotinylated); purchased Accelegan Inc

KRas^G12A = target: T2, KRas^G12A (Homo sapiens, UniProt P01116, G12A); test: KRas binding assay (TR-FRET tracer displacement), KRas G12A; conditions: single point, 10 nM compound, TR-FRET
T2 construct: Biotinylated KRas (corresponding to amino acids 1-169, produced at Accelegan Inc.); biotin (biotinylated); purchased Accelegan Inc

KRas^G12C = target: T3, KRas^G12C (Homo sapiens, UniProt P01116, G12C); test: KRas binding assay (TR-FRET tracer displacement), KRas G12C; conditions: single point, 10 nM compound, TR-FRET
T3 construct: Biotinylated KRas (corresponding to amino acids 1-169, produced at Accelegan Inc.); biotin (biotinylated); purchased Accelegan Inc

KRas^G12D = target: T4, KRas^G12D (Homo sapiens, UniProt P01116, G12D); test: KRas binding assay (TR-FRET tracer displacement), KRas G12D
T4 construct: Biotinylated KRas (corresponding to amino acids 1-169, produced at Accelegan Inc.); biotin (biotinylated); purchased Accelegan Inc

KRas^G12R = target: T5, KRas^G12R (Homo sapiens, UniProt P01116, G12R); test: KRas binding assay (TR-FRET tracer displacement), KRas G12R
T5 construct: Biotinylated KRas (corresponding to amino acids 1-169, produced at Accelegan Inc.); biotin (biotinylated); purchased Accelegan Inc

KRas^G12S = target: T6, KRas^G12S (Homo sapiens, UniProt P01116, G12S); test: KRas binding assay (TR-FRET tracer displacement), KRas G12S; conditions: single point, 10 nM compound, TR-FRET
T6 construct: Biotinylated KRas (corresponding to amino acids 1-169, produced at Accelegan Inc.); biotin (biotinylated); purchased Accelegan Inc

KRas^G12V = target: T7, KRas^G12V (Homo sapiens, UniProt P01116, G12V); test: KRas binding assay (TR-FRET tracer displacement), KRas G12V
T7 construct: Biotinylated KRas (corresponding to amino acids 1-169, produced at Accelegan Inc.); biotin (biotinylated); purchased Accelegan Inc

KRas^G13D = target: T8, KRas^G13D (Homo sapiens, UniProt P01116, G13D); test: KRas binding assay (TR-FRET tracer displacement), KRas G13D; conditions: single point, 10 nM compound, TR-FRET
T8 construct: Biotinylated KRas (corresponding to amino acids 1-169, produced at Accelegan Inc.); biotin (biotinylated); purchased Accelegan Inc

KRas^Q61H = target: T9, KRas^Q61H (Homo sapiens, UniProt P01116, Q61H); test: KRas binding assay (TR-FRET tracer displacement), KRas Q61H; conditions: single point, 10 nM compound, TR-FRET
T9 construct: Biotinylated KRas (corresponding to amino acids 1-169, produced at Accelegan Inc.); biotin (biotinylated); purchased Accelegan Inc

[1] = tested on: KRas-mediated phosphorylation of ERK in MKN1 cells; test: Inhibition of KRas-mediated phosphorylation of ERK (Cisbio HTRF pERK), MKN1 cells; assay type: cell-based; conditions: Homo sapiens, MKN-1
Summary of the method: (§1)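 Seeding density was 6,000 cells/well; medium RPMI, 10% FBS. Read-out by homogeneous time-resolved fluorescence (pERK) after 4 hours covered at room temperature.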

[2] = tested on: KRas-mediated phosphorylation of ERK in PSN1 cells; test: Inhibition of KRas-mediated phosphorylation of ERK (Cisbio HTRF pERK), PSN1 cells; assay type: cell-based; conditions: Homo sapiens
Summary of the method: as §1

[3] = tested on: KRas-mediated phosphorylation of ERK in AsPC-1 cells; test: Inhibition of KRas-mediated phosphorylation of ERK (Cisbio HTRF pERK), AsPC-1 cells; assay type: cell-based; conditions: Homo sapiens, ASPC1, AsPC-1 cells; HTRF pERK
Summary of the method: (§2)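 6,000 cells/well; cpd 10 uM top, 3-fold x10, 0.8% DMSO final; 3 hr incubation; Min ctrl Trametinib 0.2 uM; lysis 40 min 4° C shaking; d2 + Cryptate Ab mix, 2 hr RT; HTRF read.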

[4] = tested on: KRas-mediated phosphorylation of ERK in H727 cells; test: Inhibition of KRas-mediated phosphorylation of ERK (Cisbio HTRF pERK), H727 cells; assay type: cell-based; conditions: Homo sapiens, NCI-H727, H727 cells; HTRF pERK
Summary of the method: as §2

[5] = tested on: KRas-mediated phosphorylation of ERK in A549 cells; test: Inhibition of KRas-mediated phosphorylation of ERK (Cisbio HTRF pERK), A549 cells; assay type: cell-based; conditions: Homo sapiens; for inhibition at 0.1 µM: A549, 3 h, single point, 100 nM compound, 3 hrs; for IC50: HTRF pERK
Summary of the method: (§3)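 Phosphorylated ERK was quantified by HTRF using d2-conjugate and Cryptate antibodies added to lysates for 2 hrs at room temperature.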

[6] = tested on: KRas-mediated phosphorylation of ERK in H460 cells; test: Inhibition of KRas-mediated phosphorylation of ERK (Cisbio HTRF pERK), H460 cells; assay type: cell-based; conditions: Homo sapiens; for inhibition at 0.1 µM: NCI-H460, 3 h, single point, 100 nM compound, 3 hrs; for IC50: NCI-H460, HTRF pERK
Summary of the method: as §2

[7] = tested on: KRas-mediated phosphorylation of ERK in HCT116 cells; test: Inhibition of KRas-mediated phosphorylation of ERK (Cisbio HTRF pERK), HCT116 cells; assay type: cell-based; conditions: Homo sapiens; for inhibition at 0.1 µM: HCT-116, 3 h, single point, 100 nM compound, 3 hrs; for IC50: HCT-116, HTRF pERK
Summary of the method: as §3

[8] = tested on: KRas-mediated phosphorylation of ERK in H358 cells; test: Inhibition of KRas-mediated phosphorylation of ERK (Cisbio HTRF pERK), H358 cells; assay type: cell-based; conditions: Homo sapiens; for inhibition at 0.1 µM: NCI-H358, 3 h, single point, 100 nM compound, 3 hrs; for IC50: NCI-H358, HTRF pERK
Summary of the method: as §2

T2 sequence (P01116 1-169 isoform P01116-2 G12A): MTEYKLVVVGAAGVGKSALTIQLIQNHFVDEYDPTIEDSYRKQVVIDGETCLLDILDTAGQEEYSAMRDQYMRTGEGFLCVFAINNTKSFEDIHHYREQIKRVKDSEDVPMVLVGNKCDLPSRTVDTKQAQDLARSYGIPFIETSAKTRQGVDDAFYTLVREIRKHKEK
T3 sequence (P01116 1-169 isoform P01116-2 G12C): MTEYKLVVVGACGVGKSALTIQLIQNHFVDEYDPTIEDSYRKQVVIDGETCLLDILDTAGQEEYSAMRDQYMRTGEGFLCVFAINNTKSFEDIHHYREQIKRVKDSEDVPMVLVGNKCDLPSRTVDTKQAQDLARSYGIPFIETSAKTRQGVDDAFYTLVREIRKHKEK
T9 sequence (P01116 1-169 isoform P01116-2 Q61H): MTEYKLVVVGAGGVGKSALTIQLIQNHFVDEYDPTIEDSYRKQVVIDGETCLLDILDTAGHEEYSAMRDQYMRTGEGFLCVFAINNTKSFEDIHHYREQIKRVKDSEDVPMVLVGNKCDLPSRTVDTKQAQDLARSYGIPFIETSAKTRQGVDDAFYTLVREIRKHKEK
T1 sequence (P01116 1-169 isoform P01116-2): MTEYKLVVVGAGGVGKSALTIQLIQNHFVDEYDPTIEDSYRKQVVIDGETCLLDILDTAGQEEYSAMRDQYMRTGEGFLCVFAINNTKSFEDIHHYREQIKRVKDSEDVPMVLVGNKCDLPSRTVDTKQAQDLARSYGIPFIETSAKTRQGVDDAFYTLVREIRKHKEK
T4 sequence (P01116 1-169 isoform P01116-2 G12D): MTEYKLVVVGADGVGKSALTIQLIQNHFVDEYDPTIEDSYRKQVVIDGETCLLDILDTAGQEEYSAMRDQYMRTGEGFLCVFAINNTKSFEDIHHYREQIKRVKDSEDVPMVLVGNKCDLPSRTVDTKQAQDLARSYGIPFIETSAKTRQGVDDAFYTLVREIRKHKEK
T8 sequence (P01116 1-169 isoform P01116-2 G13D): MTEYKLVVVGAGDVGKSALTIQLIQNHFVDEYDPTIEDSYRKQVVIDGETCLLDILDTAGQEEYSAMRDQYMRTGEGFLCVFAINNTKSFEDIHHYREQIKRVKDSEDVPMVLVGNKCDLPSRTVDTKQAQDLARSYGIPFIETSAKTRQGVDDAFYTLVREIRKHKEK
T7 sequence (P01116 1-169 isoform P01116-2 G12V): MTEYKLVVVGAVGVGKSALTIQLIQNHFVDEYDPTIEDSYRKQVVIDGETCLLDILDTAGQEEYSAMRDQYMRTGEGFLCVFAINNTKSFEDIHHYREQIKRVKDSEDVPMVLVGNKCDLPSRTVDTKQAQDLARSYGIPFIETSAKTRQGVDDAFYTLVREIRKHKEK
T6 sequence (P01116 1-169 isoform P01116-2 G12S): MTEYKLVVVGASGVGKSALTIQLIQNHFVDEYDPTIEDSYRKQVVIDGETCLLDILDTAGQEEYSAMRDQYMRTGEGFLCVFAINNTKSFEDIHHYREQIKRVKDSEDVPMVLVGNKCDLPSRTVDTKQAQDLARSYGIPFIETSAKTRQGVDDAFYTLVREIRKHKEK
T5 sequence (P01116 1-169 isoform P01116-2 G12R): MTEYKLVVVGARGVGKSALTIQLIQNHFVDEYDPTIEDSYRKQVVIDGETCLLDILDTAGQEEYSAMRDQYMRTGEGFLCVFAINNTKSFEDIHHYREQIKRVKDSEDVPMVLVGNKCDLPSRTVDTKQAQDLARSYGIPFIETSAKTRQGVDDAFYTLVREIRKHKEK

Row | Compound | inhibition at 0.01 µM (KRas^WT) [%] | inhibition at 0.01 µM (KRas^G12A) [%] | inhibition at 0.01 µM (KRas^G12C) [%] | IC50 (KRas^G12D) [nM] | IC50 (KRas^G12R) [nM] | inhibition at 0.01 µM (KRas^G12S) [%] | IC50 (KRas^G12V) [nM] | inhibition at 0.01 µM (KRas^G13D) [%] | inhibition at 0.01 µM (KRas^Q61H) [%] | IC50 [1] [nM] | IC50 [2] [nM] | IC50 [3] [nM] | IC50 [4] [nM] | inhibition at 0.1 µM [5] [%] | inhibition at 0.1 µM [6] [%] | inhibition at 0.1 µM [7] [%] | inhibition at 0.1 µM [8] [%] | IC50 [5] [nM] | IC50 [6] [nM] | IC50 [7] [nM] | further results
1 | CCc1c(F)ccc2cc(O)cc(-c3ncc4c(N5CC6CC(O)C(C6)C5)nc(OC[C@]56CCCN5[C@H](COC(=O)N(C)C)CC6)nc4c3F)c12 (stereo partly drawn) [Example 707, ((3S,7aR)-7a-(((7-(8-ethyl-7-fluoro-3-hydroxynaphthalen-1-yl)-8-fluoro-4-(6-hydroxy-3-azabicyclo[3.2.1]octan-3-yl)pyrido[4,3-d]pyrimidin-2-yl)oxy)methyl)hexahydro-1H-pyrrolizin-3-yl)methyl dimethylcarbamate] | 76 | 76 | 84 | 9 | < 2 | 85 | 4 | 85 | 85 | 2 | 4410 | 79 | 24 | 71 | 84 | 47 | 88 | – | – | – | –
2 | CCc1c(F)ccc2cc(O)cc(-c3ncc4c(N5CCCn6nc(C(=O)N(C)C)c(C)c6C5)nc(OC[C@@]56CCCN5C[C@H](F)C6)nc4c3F)c12 [Example 670, 5-(7-(8-ethyl-7-fluoro-3-hydroxynaphthalen-1-yl)-8-fluoro-2-(((2R,7aS)-2-fluorotetrahydro-1H-pyrrolizin-7a(5H)-yl)methoxy)pyrido[4,3-d]pyrimidin-4-yl)-N,N,3-trimethyl-5,6,7,8-tetrahydro-4H-pyrazolo[1,5-a][1,4]diazepine-2-carboxamide] | 98 | 98 | 99 | < 2 | < 2 | 100 | < 2 | 98 | 97 | 2 | 4680 | 2 | 5 | – | – | – | – | 9 | 17 | 53 | IC50 [8]: 1 nM
3 | CCc1c(F)ccc2cc(O)cc(-c3ncc4c(N5CCCC6(C5)NC(=O)NC6=O)nc(OC[C@]56CCCN5[C@H](COC(=O)N(C)C)CC6)nc4c3F)c12 (stereo partly drawn) [Example 709, ((3S,7aR)-7a-(((4-(2,4-dioxo-1,3,7-triazaspiro[4.5]decan-7-yl)-7-(8-ethyl-7-fluoro-3-hydroxynaphthalen-1-yl)-8-fluoropyrido[4,3-d]pyrimidin-2-yl)oxy)methyl)hexahydro-1H-pyrrolizin-3-yl)methyl dimethylcarbamate] | 91 | 80 | 95 | < 2 | < 2 | 94 | < 2 | 97 | 99 | 3 | 253 | 63 | 53 | 62 | 88 | 65 | 101 | – | – | – | –
4 | CCc1c(F)ccc2cc(O)cc(-c3ncc4c(N5CCC(O)c6nn(C(=O)N(C)C)cc6C5)nc(OC[C@@]56CCCN5C[C@H](F)C6)nc4c3F)c12 (stereo partly drawn) [Example 674, 5-(7-(8-ethyl-7-fluoro-3-hydroxynaphthalen-1-yl)-8-fluoro-2-(((2R,7aS)-2-fluorohexahydro-1H-pyrrolizin-7a-yl)methoxy)pyrido[4,3-d]pyrimidin-4-yl)-8-hydroxy-N,N-dimethyl-5,6,7,8-tetrahydropyrazolo[4,3-c]azepine-2(4H)-carboxamide] | 91 | 93 | 98 | < 2 | < 2 | 97 | < 2 | 92 | 95 | 6 | > 10000 | 9 | 21 | 74 | 63 | 17 | 97 | 30 | 69 | 191 | IC50 [8]: 2 nM
